Reference: US20230158042A1, “COMBINATION CANCER THERAPY WITH PENTAAZA MACROCYCLIC RING COMPLEX AND HORMONE THERAPY AGENT” (Galera Labs, LLC, priority 2020, published 2023)

Tests used:
[1] = tested on: Tam resistant as well as loss of Sirt3 tumor cell lines; test: In vitro Tam resistance in Tam resistant and loss of Sirt3 tumor cell lines; format: cell-based; conditions: data not shown
MCF7-HTR cells = test: Ki-67 staining in MCF7-HTR cells; format: cell-based, human; conditions: 5 µM GC4419 for 5 days
From the text: With respect to FIG. 16a, the data from FIG. 7i, where MCF7-HTR cells were stained for Ki-67, as well as DAPI, were counted with ImageJ and quantified for average Ki-67 intensity as shown in the bar graph. With respect to FIGS. 16b and 16c, T47D and T47D-HTR cells were stained for Ki-67 as well as DAPI, and particles in the nucleus were counted with ImageJ and quantified for average Ki-67 intensity as shown in the bar graph. In FIGS. 16d and 16e, MCF7-HTR cells, and in FIGS. 16f and 16g, T47D-HTR cells, were treated with 5 µM GC4419 and/or 1 µM 4-hydroxy-Tam for 5 days, and then stained for Ki-67 as well as DAPI. Quantifications of average Ki-67 intensity are shown in the bar graphs. All experiments were done in triplicate. Error bars represent ± 1 SEM. ***p < 0.001. Representative images are shown.
Cells seeded on glass coverslips were fixed in 4% paraformaldehyde and then blocked with 1% BSA and 10% normal goat serum in 1x PBS. Cells were incubated with anti-Ki-67 (c-bioscience) antibody in 1x PBS followed by incubation with goat anti-rabbit IgG conjugated with Alexa Fluor 647 (Invitrogen) in 1x PBS with 5% goat serum. Cells were washed in 1x PBS, mounted, and imaged with a fluorescence microscope. Fluorescence images were captured using a laser scanning confocal microscope (Nikon A1 R). The paired images in all the figures were collected at the same gain and offset settings. […]

[2] = tested on: Sirt3^-/--MT-SIRT3^DN allografts; test: Sirt3-/--MT-SIRT3^DN mammary allograft tumor growth (bioluminescence); format: in vivo; conditions: GC4419 by IP every other day for five weeks; compared to control mice
Protocol: FIGS. 29a-29b are plots showing that the growth of murine mammary allograft tumors is inhibited by exposure to the MnSOD mimic GC4419 much more in cells without expression of deacetylation competent SIRT3. […] Mice were subsequently injected with luciferin potassium (120 mg/kg) every week and signal intensity will be quantified. Error bars represent one SD from the mean.
These cell lines were subsequently infected with and selected to express either a SIRT3 wild-type (Sirt3^-/--MT-SIRT3^WT) or deacetylation activity null (Sirt3^-/--MT-SIRT3^DN) gene and a lenti-luciferase to assess tumor growth by bioluminescence. Allograft tumor mice were split into four groups: (1) control, untreated Sirt3^-/--MT-SIRT3^DN; (2) GC4419 treated Sirt3^-/--MT-SIRT3^DN; (3) control, untreated Sirt3^-/--MT-SIRT3^WT; and (4) GC4419 treated Sirt3^-/--MT-SIRT3^WT. […] Accordingly, it was shown that the growth of murine mammary allograft tumors is inhibited by pharmacologically mimicking the activity of deacetylated lysine 68 MnSOD with a manganese pentaazamacrocyclic dismutase mimetic much more in tumors without deacetylation competent SIRT3. Further, this supports that selection of tumors displaying an AcK68 signature could increase response to treatment with a MnPAM dismutase mimetic (or other methods) alone or in combination with other therapies.

rat model = conditions: cited from earlier work
T47D-MnSOD^K68Q cells = test: Ki-67 staining in T47D-MnSOD^K68Q cells; format: cell-based, human; conditions: 5 µM GC4419 for 5 days
Protocol: (§1) MCF7-MnSOD^K68Q cells (in FIGS. 17a and 17b) and T47D-MnSOD^K68Q cells (in FIGS. 17c and 17d) were treated with 5 µM GC4419 and/or 1 µM 4-hydroxy-Tam for 5 days, and then stained for Ki-67 as well as DAPI. Quantifications of average Ki-67 intensity are shown in the bar graphs. In FIG. 17e, MCF7 and MCF7-HTR cells were implanted into both hind limbs of nude mice and tumor volumes were measured every 3 days for 6 weeks and the number of tumors that successfully implanted versus the total number of mice infected with MCF7 and MCF7-HTR as well as the average tumor weight and tumor size are shown. Representative images are shown. All experiments were done in triplicate. Error bars represent ± 1 SEM. ***p < 0.001.
(§2) Cells seeded on glass coverslips were fixed in 4% paraformaldehyde and then blocked with 1% BSA and 10% normal goat serum in 1x PBS. Cells were incubated with anti-Ki-67 (c-bioscience) antibody in 1x PBS followed by incubation with goat anti-rabbit IgG conjugated with Alexa Fluor 647 (Invitrogen) in 1x PBS with 5% goat serum. Cells were washed in 1x PBS, mounted, and imaged with a fluorescence microscope. Fluorescence images were captured using a laser scanning confocal microscope (Nikon A1 R). The paired images in all the figures were collected at the same gain and offset settings. Post-collection processing was applied uniformly to all paired images.

MCF7-MnSOD^K68Q cells = test: Ki-67 staining in MCF7-MnSOD^K68Q cells; format: cell-based, human; conditions: 5 µM GC4419 for 5 days
Protocol: as §1, §2

MCF7-Cispl-R cells = test: Cell ROS levels in cisplatin-resistant MCF7 cells; format: cell-based, human; conditions: data not shown
Protocol: FIGS. 27a-27c are an image and graphs showing that MnSOD—AcK68/ROS/HIF2α dysregulation directs PanR (multi-therapy resistance to cancer therapeutics). […] In FIG. 27b, ROS was measured in MCF7-Cispl-R cells, compared with MCF7 cells, using an Amplex Red assay. In FIG. 27c, MCF7 and MCF7-MnSOD^K68Q cells were measured by clonogenic cell survival assays, without and with cisplatin exposure, and infected with scrambled (C) or HIF2α shRNA. All experiments were done in triplicate. Error bars are ± 1 SEM. * p < 0.05.

MCF-7-MnSOD^K68Q cells = test: Clonogenic cell survival after 5 Gy ionizing radiation in MCF-7-MnSOD^K68Q cells; format: cell-based, human; conditions: 5 µM GC4419 for 5 days
Protocol: FIGS. 30a-30b are plots showing that mimicking acetylation of MnSOD—K68 with MnSOD^K68Q expression induces ionizing radiation resistance (IRR) in breast cancer cells, and that pharmacologically mimicking the activity of deacetylated lysine 68 MnSOD with a manganese pentaazamacrocyclic dismutase mimetic reverses this IRR. […] All experiments were done in triplicate. Error bars represent ± 1 SEM. ***p < 0.001. Data were analyzed by a t-test.

[3] = tested on: LNCaP-MnSOD^K68Q xenografts; test: LNCaP-MnSOD^K68Q hind limb xenograft growth in nude mice; format: in vivo; conditions: GC4419 10 mg/kg, once per week; tumor volumes for 46 days
Protocol: FIGS. 21a-21b are a chart and graph showing that pharmacologically mimicking the activity of deacetylated lysine 68 MnSOD with a manganese pentaazamacrocyclic dismutase mimetic both inhibited the growth of LNCaP-ENZR tumors and reversed the enzalutamide resistance in LNCaP-ENZR / LNCaP—MnSOD^K68Q cells and tumors. In FIG. 21a, clonogenic cell survival experiments were performed in LNCaP-ENZR (left two bars) and LNCaP—MnSOD^K68Q (right two bars) treated with ENZ, with or without GC4419 (20 µM) for 5 days. […] Tumor volumes were measured three times a week for 46 days. For each group n=10. Error bars ± 1 SEM. All experiments done in triplicate. **p < 0.01.

[4] = tested on: head-and-neck cancer patients; conditions: patients undergoing chemoradiation therapy, Phase 1 trial; cited from earlier work

Structure (SMILES): [Cl][Mn][Cl].c1cc2nc(c1)CN[C@H]1CCCC[C@@H]1NCCN[C@H]1CCCC[C@@H]1NC2 [GC4419]
- Tam resistance [1]: reverses Tam resistance
- Ki-67 IHC staining (MCF7-HTR cells): decreased Ki-67 IHC staining
- tumor growth [2]: significant decrease in tumor growth
- VEGFr inhibitor-induced pulmonary disease (rat model): attenuate VEGFr inhibitor-induced pulmonary disease
- Ki-67 IHC staining (T47D-MnSOD^K68Q cells): reversed the increase in Ki-67 IHC staining
- Ki-67 IHC staining (MCF7-MnSOD^K68Q cells): reversed the increase in Ki-67 IHC staining
- cell ROS levels (MCF7-Cispl-R cells): decreased cell ROS levels
- ionizing radiation resistance (IRR) phenotype, clonogenic cell survival (MCF-7-MnSOD^K68Q cells): reversed the IRR phenotype
- xenograft growth [3]: significant inhibition of xenograft growth
- oral mucositis [4]: reduce oral mucositis
